Patent publication US11629143B2, “HipK4 inhibitors and uses thereof” (Vibliome Therapeutics, LLC, priority 2020, dated 2023)

What was measured:
Assay in all cases: Kinase panel (mobility shift)
Assay type in all cases: biochemical
[1] = molecular target: T1, TAOK3 (Homo sapiens, UniProt Q9H2K8)
T1 sequence (Q9H2K8 1-898): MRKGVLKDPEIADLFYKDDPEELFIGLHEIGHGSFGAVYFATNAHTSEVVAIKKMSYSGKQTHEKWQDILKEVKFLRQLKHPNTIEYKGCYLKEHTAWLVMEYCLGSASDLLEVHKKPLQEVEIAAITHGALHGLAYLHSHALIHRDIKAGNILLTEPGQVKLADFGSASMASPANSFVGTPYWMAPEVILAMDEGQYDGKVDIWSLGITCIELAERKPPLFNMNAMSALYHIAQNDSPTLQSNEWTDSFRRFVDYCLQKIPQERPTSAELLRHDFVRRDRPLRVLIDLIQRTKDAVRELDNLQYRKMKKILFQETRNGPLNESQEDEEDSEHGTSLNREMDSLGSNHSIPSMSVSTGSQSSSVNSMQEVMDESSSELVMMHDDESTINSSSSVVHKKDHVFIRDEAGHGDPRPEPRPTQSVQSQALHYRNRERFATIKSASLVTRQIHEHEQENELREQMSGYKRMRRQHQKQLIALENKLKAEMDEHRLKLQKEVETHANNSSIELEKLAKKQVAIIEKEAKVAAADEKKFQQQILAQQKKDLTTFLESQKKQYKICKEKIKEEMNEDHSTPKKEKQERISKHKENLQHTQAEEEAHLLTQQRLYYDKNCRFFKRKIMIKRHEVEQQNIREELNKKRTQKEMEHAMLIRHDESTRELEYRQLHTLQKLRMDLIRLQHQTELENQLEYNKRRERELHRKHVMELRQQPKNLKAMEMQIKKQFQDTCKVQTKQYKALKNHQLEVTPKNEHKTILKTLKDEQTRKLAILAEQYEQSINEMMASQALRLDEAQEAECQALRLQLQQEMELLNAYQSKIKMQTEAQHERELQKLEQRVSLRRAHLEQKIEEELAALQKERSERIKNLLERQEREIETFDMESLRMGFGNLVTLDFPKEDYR
Procedure, shortened: (§1)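 Microfluidic mobility-shift readout: product and substrate peaks are resolved by charge, and their fluorescence is compared to give enzyme activity. Enzyme, fluorescent substrate and test compound are reacted, then terminated before chip loading. Values are binned at 5 um: A 95% or greater, B 90%-94%, C 80%-89%.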

[2] = molecular target: KIT (Homo sapiens, UniProt P10721)
KIT, sequence (P10721 26-976, species assumed): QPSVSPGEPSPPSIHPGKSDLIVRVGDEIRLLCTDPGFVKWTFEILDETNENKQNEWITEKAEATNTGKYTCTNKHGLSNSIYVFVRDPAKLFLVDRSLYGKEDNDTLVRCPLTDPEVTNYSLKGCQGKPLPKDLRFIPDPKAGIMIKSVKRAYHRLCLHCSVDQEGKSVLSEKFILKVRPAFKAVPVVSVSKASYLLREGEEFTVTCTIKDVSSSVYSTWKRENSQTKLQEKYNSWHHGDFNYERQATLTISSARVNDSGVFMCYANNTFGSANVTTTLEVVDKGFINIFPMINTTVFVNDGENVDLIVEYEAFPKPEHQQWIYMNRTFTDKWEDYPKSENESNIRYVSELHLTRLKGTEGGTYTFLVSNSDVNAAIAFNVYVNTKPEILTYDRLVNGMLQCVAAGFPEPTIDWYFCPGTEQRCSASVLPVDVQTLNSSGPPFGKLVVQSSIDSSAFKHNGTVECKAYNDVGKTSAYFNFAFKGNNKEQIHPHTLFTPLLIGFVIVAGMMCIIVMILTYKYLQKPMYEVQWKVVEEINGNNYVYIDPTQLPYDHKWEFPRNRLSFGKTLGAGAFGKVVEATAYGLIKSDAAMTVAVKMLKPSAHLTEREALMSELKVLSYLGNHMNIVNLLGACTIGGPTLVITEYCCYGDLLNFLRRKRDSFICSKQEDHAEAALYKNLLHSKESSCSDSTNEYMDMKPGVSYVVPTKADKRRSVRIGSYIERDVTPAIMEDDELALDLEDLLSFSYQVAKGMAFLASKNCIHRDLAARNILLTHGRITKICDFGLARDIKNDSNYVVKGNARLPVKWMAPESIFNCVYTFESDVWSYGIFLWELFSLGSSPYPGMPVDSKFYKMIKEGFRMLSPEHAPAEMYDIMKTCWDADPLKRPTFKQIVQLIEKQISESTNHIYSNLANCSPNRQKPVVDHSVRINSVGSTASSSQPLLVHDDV
Procedure, shortened: as §1

[3] = molecular target: EPH-A4 (Homo sapiens, UniProt P54764)
EPH-A4, sequence (P54764 20-986, species assumed): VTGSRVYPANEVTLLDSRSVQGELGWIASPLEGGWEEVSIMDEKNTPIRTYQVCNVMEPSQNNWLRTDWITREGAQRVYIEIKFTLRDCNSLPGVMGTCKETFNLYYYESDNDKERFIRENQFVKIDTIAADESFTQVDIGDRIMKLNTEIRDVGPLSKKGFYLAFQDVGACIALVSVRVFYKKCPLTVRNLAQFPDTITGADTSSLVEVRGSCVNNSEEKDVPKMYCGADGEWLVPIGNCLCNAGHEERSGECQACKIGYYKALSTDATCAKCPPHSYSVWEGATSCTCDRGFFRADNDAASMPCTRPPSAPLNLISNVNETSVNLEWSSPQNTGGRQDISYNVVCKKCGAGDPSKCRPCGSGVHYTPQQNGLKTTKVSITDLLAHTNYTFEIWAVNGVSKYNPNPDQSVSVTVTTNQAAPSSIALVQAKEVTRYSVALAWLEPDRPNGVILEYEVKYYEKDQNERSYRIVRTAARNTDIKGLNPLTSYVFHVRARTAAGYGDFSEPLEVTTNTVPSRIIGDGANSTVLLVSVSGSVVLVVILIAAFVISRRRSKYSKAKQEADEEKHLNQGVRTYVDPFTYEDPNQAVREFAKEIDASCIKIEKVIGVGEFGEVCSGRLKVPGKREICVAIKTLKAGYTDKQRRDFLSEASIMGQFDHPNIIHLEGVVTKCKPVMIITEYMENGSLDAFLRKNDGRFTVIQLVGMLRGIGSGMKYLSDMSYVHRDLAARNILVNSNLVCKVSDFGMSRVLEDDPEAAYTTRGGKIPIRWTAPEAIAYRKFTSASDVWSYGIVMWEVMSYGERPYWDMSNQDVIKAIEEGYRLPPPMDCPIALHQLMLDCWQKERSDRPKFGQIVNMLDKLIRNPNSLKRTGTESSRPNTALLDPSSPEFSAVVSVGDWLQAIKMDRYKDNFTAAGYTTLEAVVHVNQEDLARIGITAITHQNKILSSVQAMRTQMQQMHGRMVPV
Procedure, shortened: as §1

[4] = molecular target: T2, DDR2 (Homo sapiens, UniProt Q16832)
T2 sequence (Q16832 22-855): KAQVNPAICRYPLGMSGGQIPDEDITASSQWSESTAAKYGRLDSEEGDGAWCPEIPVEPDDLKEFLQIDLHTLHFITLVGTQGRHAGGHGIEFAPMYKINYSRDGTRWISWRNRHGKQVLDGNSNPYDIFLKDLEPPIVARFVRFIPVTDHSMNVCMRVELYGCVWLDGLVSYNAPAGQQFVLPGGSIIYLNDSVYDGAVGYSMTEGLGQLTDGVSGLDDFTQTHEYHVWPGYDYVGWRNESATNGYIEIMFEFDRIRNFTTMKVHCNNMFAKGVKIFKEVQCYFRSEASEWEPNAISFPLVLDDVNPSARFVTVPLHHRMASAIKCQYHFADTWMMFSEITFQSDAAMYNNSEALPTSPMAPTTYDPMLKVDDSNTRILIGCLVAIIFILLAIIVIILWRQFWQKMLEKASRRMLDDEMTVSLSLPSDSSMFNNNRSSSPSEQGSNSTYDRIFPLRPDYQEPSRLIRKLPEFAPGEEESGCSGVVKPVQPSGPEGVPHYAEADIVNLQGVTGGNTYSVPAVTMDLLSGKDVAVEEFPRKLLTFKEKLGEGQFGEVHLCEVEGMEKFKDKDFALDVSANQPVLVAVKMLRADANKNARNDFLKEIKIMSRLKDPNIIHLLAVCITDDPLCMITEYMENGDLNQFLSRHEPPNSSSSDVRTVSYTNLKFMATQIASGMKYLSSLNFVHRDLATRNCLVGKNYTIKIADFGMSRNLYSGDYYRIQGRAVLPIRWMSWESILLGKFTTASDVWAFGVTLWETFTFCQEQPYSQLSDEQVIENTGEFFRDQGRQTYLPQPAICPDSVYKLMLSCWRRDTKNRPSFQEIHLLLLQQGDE
Procedure, shortened: as §1

[5] = molecular target: T3, AXL (Homo sapiens, UniProt P30530)
T3 sequence (P30530 26-894): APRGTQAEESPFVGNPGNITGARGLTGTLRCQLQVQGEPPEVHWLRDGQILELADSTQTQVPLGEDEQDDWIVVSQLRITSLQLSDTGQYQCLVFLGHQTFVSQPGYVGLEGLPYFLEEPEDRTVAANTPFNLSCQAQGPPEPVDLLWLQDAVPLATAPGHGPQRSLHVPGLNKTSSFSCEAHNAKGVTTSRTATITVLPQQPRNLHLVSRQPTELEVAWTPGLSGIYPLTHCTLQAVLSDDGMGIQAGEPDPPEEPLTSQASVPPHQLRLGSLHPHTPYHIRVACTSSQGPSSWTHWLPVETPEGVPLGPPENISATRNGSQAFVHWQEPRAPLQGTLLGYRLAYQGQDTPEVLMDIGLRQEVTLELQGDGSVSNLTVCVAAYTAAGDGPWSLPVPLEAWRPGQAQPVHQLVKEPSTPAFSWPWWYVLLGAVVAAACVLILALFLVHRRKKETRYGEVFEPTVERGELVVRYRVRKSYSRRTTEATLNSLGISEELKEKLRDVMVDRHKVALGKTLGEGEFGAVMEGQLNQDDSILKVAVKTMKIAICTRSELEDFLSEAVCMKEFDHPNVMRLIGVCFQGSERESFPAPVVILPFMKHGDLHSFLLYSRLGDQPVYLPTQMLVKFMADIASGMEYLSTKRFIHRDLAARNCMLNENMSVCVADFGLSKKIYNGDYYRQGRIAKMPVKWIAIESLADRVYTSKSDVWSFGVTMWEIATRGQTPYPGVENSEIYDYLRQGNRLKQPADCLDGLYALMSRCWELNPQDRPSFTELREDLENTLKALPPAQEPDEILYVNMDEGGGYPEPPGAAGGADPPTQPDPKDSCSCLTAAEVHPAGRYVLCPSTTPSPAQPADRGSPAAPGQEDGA
Procedure, shortened: as §1

[6] = molecular target: LOK (Homo sapiens, UniProt O94804); conditions: at 5 um
LOK, sequence (O94804 whole entry, species assumed): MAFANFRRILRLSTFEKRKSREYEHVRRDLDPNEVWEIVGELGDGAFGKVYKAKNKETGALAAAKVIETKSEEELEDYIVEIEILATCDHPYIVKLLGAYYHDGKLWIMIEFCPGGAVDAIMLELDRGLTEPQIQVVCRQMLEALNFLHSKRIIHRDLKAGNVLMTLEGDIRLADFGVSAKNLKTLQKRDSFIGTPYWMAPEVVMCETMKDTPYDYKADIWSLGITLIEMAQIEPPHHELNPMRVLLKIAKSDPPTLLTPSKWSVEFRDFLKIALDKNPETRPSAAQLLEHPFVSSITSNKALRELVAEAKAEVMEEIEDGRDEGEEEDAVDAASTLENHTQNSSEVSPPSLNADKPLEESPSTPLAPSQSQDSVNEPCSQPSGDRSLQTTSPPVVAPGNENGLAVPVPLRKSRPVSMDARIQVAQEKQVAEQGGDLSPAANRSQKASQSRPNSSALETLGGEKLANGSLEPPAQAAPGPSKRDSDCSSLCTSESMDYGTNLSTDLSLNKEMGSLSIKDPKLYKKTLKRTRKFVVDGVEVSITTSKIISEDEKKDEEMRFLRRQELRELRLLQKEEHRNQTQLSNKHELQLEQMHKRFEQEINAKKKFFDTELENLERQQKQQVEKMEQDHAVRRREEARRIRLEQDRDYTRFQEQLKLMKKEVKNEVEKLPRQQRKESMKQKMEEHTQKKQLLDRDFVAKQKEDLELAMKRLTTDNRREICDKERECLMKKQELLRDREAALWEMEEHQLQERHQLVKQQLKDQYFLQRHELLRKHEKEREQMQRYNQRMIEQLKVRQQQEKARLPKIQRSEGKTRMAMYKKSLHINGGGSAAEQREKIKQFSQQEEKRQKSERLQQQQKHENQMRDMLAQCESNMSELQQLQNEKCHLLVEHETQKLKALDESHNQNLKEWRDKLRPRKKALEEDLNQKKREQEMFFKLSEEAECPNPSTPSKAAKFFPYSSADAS
Procedure, shortened: as §1

Row | Structure (SMILES) | inhibition at 5 µM [1] [%] | inhibition at 5 µM [2] [%] | inhibition at 5 µM [3] [%] | inhibition at 5 µM [4] [%] | inhibition at 5 µM [5] [%] | inhibition of kinase activity, LOK [6]
1 | CSc1nc(C(=O)Nc2ccc(Oc3ccnc(C(=O)NCC(F)(F)F)c3)c(F)c2)c(-c2ccc(F)cc2)o1 [Compound 40] | < 50 | < 50 | < 50 | 50 to 79 | < 50 | E (category E is less than 50%)
2 | CNC(=O)c1cc(Oc2ccc(NC(=O)c3nc(SC)oc3-c3ccc(F)cc3Cl)cc2)ccn1 [Compound 3] | < 50 | 50 to 79 | < 50 | 80 to 89 | 80 to 89 | E (category E is less than 50%)
3 | CNC(=O)c1cc(Oc2ccc(NC(=O)c3nc(S(C)(=O)=O)sc3-c3ccc(F)cc3)cc2F)ccn1 [Compound 13] | < 50 | < 50 | 50 to 79 | 80 to 89 | 80 to 89 | E (category E is less than 50%)

Second part, the molecule after the results:

Row | inhibition at 5 µM [1] [%] | inhibition at 5 µM [2] [%] | inhibition at 5 µM [3] [%] | inhibition at 5 µM [4] [%] | inhibition at 5 µM [5] [%] | inhibition of kinase activity, LOK [6] | Structure (SMILES)
4 | < 50 | < 50 | < 50 | 50 to 79 | < 50 | D (category D for 50-79) | CSc1nc(C(=O)Nc2ccc(Oc3ccnc(C(=O)NC4COC4)c3)c(F)c2)c(-c2ccc(F)cc2)o1 [Compound 31]
5 | < 50 | < 50 | < 50 | 50 to 79 | < 50 | E (category E is less than 50%) | COc1nc(C(=O)Nc2ccc(Oc3ccnc(C(=O)NC4COC4)c3)c(F)c2)c(-c2ccc(F)cc2)o1 [Compound 39]
6 | < 50 | < 50 | < 50 | 50 to 79 | < 50 | D (category D for 50-79) | CNC(=O)c1cc(Oc2ccc(NC(=O)c3nc(OC)oc3-c3ccc(F)s3)cc2F)ccn1 [Compound 25]
7 | < 50 | < 50 | < 50 | < 50 | < 50 | E (category E is less than 50%) | COc1nc(C(=O)Nc2ccc(Oc3ccnc(C(=O)NCC(F)(F)F)c3)c(F)c2)c(-c2ccc(F)cc2)o1 [Compound 43]
8 | 90 to 94 | 50 to 79 | 50 to 79 | ≥ 95 | < 50 | C (C=80%-89% at 5 um) | CNC(=O)c1cc(Oc2ccc(NC(=O)c3nc(NC)oc3-c3ccc(F)cc3)cc2F)ccn1 [Compound 14]
